Reference: patent publication US20250388593A1 (MITSUBISHI TANABE PHARMA CORPORATION, priority 2023, published 2025)

Target: CRBN truncate (318-426) (Homo sapiens (Human), UniProt Q96SW2)
Assay: Measurement of molecular interactions using surface plasmon resonance (SPR), Biacore T200
Type: binding
Details: 25° C., immobilized CRBN truncate, upper limit of measurement 200 μM
Method: The instrument used was the Biacore T200 (manufactured by Cytiva). The CRBN truncate (318-426) was obtained by expressing a construct with an Avi-tag added at the C-terminus. The sensor chip used was Sensor Chip SA (manufactured by Cytiva). The CRBN truncate was immobilized using the affinity between SA (streptavidin) on the sensor chip and the Avi-tag. The running buffer was a mixture of 10 mM HEPES pH 7.5, 150 mM NaCl, 1 mM TCEP, 0.005% Tween 20, and 2% DMSO. […] Contact time and dissociation time were set at 60 seconds and 120 seconds, respectively.

CRBN truncate (318-426), sequence (Q96SW2 318-426): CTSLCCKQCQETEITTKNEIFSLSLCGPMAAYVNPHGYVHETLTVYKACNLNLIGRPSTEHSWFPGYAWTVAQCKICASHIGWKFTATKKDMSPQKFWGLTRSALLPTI

For `COC(=O)c1cccc(S(=O)(=O)N(C)C2CCCC(=O)NC2=O)c1` (stereo not shown) [Example 11, Methyl 3-[(2,7-dioxoazepan-3-yl)-methylsulfamoyl]benzoate], which Kd is on record?
The Kd was no less than 100 µM.

With `O=C1COCC2(CCCN(C(=O)c3ccccc3)C2)C(=O)N1` (stereo not shown) [Example 12-2, 2-Benzoyl-8-oxa-2,11-diazaspiro[5.6]dodecane-10,12-dione] as the compound, how does the Kd read?
The Kd was no less than 100 µM.

How did the Kd turn out when `O=C1COCC2(CCN(C(=O)c3ccccc3)CC2)C(=O)N1` [Example 13-2, 3-benzoyl-8-oxa-3,11-diazaspiro[5.6]dodecane-10,12-dione] was run?
Its Kd is no less than 100 µM.

Which Kd does the source give for `O=C1CCCC2(CCCN(C(=O)c3ccccc3)CCC2)C(=O)N1` [Example 14, 11-Benzoyl-2,11-diazaspiro[6.7]tetradecane-1,3-dione] here?
Its Kd is 50 to 100 µM.

For `CC(C)(C)OC(=O)c1ccc(N2CCCC3(COCC(=O)NC3=O)C2)nc1` (stereo not shown) [Example 15, tert-Butyl 6-(10,12-dioxo-8-oxa-2,11-diazaspiro [5.6]dodecan-2-yl) pyridine-3-carboxylate], which Kd is on record?
The Kd was no less than 100 µM.

How did the Kd turn out when `CC(C)(C)OC(=O)c1ccc(N2CCC3(CC2)COCC(=O)NC3=O)nc1` [Example 16, tert-Butyl 6-(10,12-dioxo-8-oxa-3,11-diazaspiro [5.6]dodecan-3-yl) pyridine-3-carboxylate] was run?
The Kd was no less than 100 µM.

With `O=C1CCOC(c2ccccc2)C(=O)N1` (stereo not shown) [Example 18, 2-Phenyl-1,4-oxazepane-3,5-dione] as the compound, how does the Kd read?
Its Kd is no less than 100 µM.

For `O=C1CCOC(c2cccc(Br)c2)C(=O)N1` (stereo not shown) [Example 19, 2-(3-Bromophenyl)-1,4-oxazepane-3,5-dione], which Kd is on record?
Its Kd is no less than 100 µM.

For `CN(C(=O)c1cccc(-c2ccccc2)c1)C1CCCC(=O)NC1=O` (stereo not shown) [Example 20, N-(2,7-Dioxoazepan-3-yl)-N-methyl-3-phenylbenzamide], which Kd is on record?
Its Kd is no less than 100 µM.

`O=C1CCCC(NC(=O)c2cccc(-c3ccccc3)c2)C(=O)N1` (stereo not shown) [Example 21, N-(2,7-dioxoazepan-3-yl)-3-phenylbenzamide] was tested. Which Kd did it give?
The Kd was no less than 100 µM.

How did the Kd turn out when `O=C1COCC(NC(=O)c2cccc(-c3ccccc3)c2)C(=O)N1` (stereo not shown) [Example 22, N-(3,5-dioxo-1,4-oxazepan-6-yl)-3-phenylbenzamide] was run?
Its Kd is no less than 100 µM.

Which Kd does the source give for `CC(C)(C)OC(=O)N(CC1CCCC(=O)NC1=O)c1ccc(F)cc1` (stereo not shown) [Example 24, tert-Butyl N-[(2,7-dioxoazepan-3-yl)methyl]-N-(4-fluorophenyl) carbamate] here?
The Kd was no less than 100 µM.

`O=C1CCCC(CNc2ccc(F)cc2)C(=O)N1` (stereo not shown) [Example 25, 3-[(4-Fluoroanilino)methyl]azepane-2,7-dione] was tested. Which Kd did it give?
Its Kd is no less than 100 µM.

How did the Kd turn out when `COC(=O)c1ccc(=O)n(C2CCCC(=O)NC2=O)c1` (stereo not shown) [Example 26, Methyl 1-(2,7-dioxoazepan-3-yl)-6-oxopyridine-3-carboxylate] was run?
Its Kd is no less than 100 µM.

How did the Kd turn out when `CN(C1CCCC(=O)NC1=O)S(=O)(=O)c1ccc(CNC(=O)OC(C)(C)C)cc1` (stereo not shown) [Example 27, tert-Butyl N-[[4-[(2,7-dioxoazepan-3-yl)-methylsulfamoyl]phenyl]methyl]carbamate] was run?
The Kd was no less than 100 µM.

`O=C1CCCC(C(=O)Nc2ccc(F)cc2)C(=O)N1` (stereo not shown) [Example 28, N-(4-Fluorophenyl)-2,7-dioxoazepane-3-carboxamide] was tested. Which Kd did it give?
Its Kd is no less than 100 µM.

Which Kd does the source give for `CC(C)(C)OC(=O)N1CCN(C2CCCC(=O)NC2=O)C(=O)C1` (stereo not shown) [Example 29-1, tert-Butyl 4-(2,7-dioxoazepan-3-yl)-3-oxopiperazine-1-carboxylate] here?
The Kd was no less than 100 µM.

How did the Kd turn out when `CC(C)(C)OC(=O)N1CCN(C2CCCC(=O)NC2=O)C(=O)C1=O` (stereo not shown) [Example 29-2, tert-Butyl 4-(2,7-dioxoazepan-3-yl)-2,3-dioxopiperazine-1-carboxylate] was run?
Its Kd is no less than 100 µM.

`CC(C)(C)OC(=O)c1ccc(N2CCN(C3CCCC(=O)NC3=O)C(=O)C2)nc1` (stereo not shown) [Example 30, tert-Butyl 6-[4-(2,7-dioxoazepan-3-yl)-3-oxopiperazin-1-yl]pyridine-3-carboxylate] was tested. Which Kd did it give?
Its Kd is no less than 100 µM.

`CC1(CN2C(=O)c3ccccc3C2=O)CCCC(=O)NC1=O` (stereo not shown) [Example 31, 2-[(3-Methyl-2,7-dioxoazepan-3-yl)methyl]isoindole-1,3-dione] was tested. Which Kd did it give?
Its Kd is 50 to 100 µM.

`CC(C)(C)OC(=O)c1cnc(N2CCC3(CCCC(=O)NC3=O)C2)nc1` (stereo not shown) [Example 32, tert-Butyl 2-(6,8-dioxo-2,7-diazaspiro [4.6]undecan-2-yl) pyrimidine-5-carboxylate] was tested. Which Kd did it give?
Its Kd is no less than 100 µM.

Which Kd does the source give for `COC(=O)c1cccc(CN2CCC3(CCCC(=O)NC3=O)C2)c1` (stereo not shown) [Example 33, Methyl 3-[(6,8-dioxo-2,7-diazaspiro[4.6]undecan-2-yl)methyl]benzoate] here?
Its Kd is no less than 100 µM.

`COC(=O)c1ccc(CN2CCC3(CCCC(=O)NC3=O)C2)cc1` (stereo not shown) [Example 34, Methyl 4-[(6,8-dioxo-2,7-diazaspiro[4.6]undecan-2-yl)methyl]benzoate] was tested. Which Kd did it give?
The Kd was no less than 100 µM.

With `CC(C)(C)OC(=O)c1cnc(N2CCC3(CCCC(=O)NC3=O)C2)cn1` (stereo not shown) [Example 35, tert-Butyl 5-(6,8-dioxo-2,7-diazaspiro[4.6]undecan-2-yl)pyrazine-2-carboxylate] as the compound, how does the Kd read?
Its Kd is no less than 100 µM.

With `COC(=O)c1cc2c(N3CCC4(CCCC(=O)NC4=O)C3)ncnc2n1C` (stereo not shown) [Example 36, Methyl 4-(6,8-dioxo-2,7-diazaspiro[4.6]undecan-2-yl)-7-methyl-pyrrolo[2,3-d]pyrimidine-6-carboxylate] as the compound, how does the Kd read?
Its Kd is less than 50 µM.

For `Cn1ccc2c(N3CCC4(CCCC(=O)NC4=O)C3)ncnc21` (stereo not shown) [Example 37, 2-(7-methylpyrrolo[2,3-d]pyrimidin-4-yl)-2,7-diazaspiro[4.6]undecane-6,8-dione], which Kd is on record?
The Kd was no less than 100 µM.

How did the Kd turn out when `O=C1CCCC2(CCN(c3ccc(C(F)(F)F)cn3)C2)C(=O)N1` (stereo not shown) [Example 38, 2-[5-(trifluoromethyl)-2-pyridyl]-2,7-diazaspiro[4.6]undecane-6,8-dione] was run?
The Kd was no less than 100 µM.

Which Kd does the source give for `Cn1ncc2c(N3CCC4(CCCC(=O)NC4=O)C3)ncnc21` (stereo not shown) [Example 39, 2-(1-methylpyrazolo[3,4-d]pyrimidin-4-yl)-2,7-diazaspiro[4.6]undecane-6,8-dione] here?
The Kd was no less than 100 µM.

For `CCOC(=O)c1cc(N2CCC3(CCCC(=O)NC3=O)C2)ncc1C(F)(F)F` (stereo not shown) [Example 40, Ethyl 2-(6,8-dioxo-2,7-diazaspiro[4.6]undecan-2-yl)-5-(trifluoromethyl)pyridine-4-carboxylate], which Kd is on record?
Its Kd is no less than 100 µM.

With `COc1cc(N2CCC3(CCCC(=O)NC3=O)C2)ccc1[N+](=O)[O-]` (stereo not shown) [Example 41, 2-(3-Methoxy-4-nitrophenyl)-2,7-diazaspiro[4.6]undecane-6,8-dione] as the compound, how does the Kd read?
The Kd was no less than 100 µM.

Which Kd does the source give for `COc1cc([N+](=O)[O-])ccc1N1CCC2(CCCC(=O)NC2=O)C1` (stereo not shown) [Example 42, 2-(2-Methoxy-4-nitrophenyl)-2,7-diazaspiro[4.6]undecane-6,8-dione] here?
Its Kd is 50 to 100 µM.

Which Kd does the source give for `COC(=O)c1cc2ncnc(N3CCC4(CCCC(=O)NC4=O)C3)c2s1` (stereo not shown) [Example 43, Methyl 4-(6,8-dioxo-2,7-diazaspiro[4.6]undecan-2-yl)thieno[3,2-d]pyrimidine-6-carboxylate] here?
The Kd was 50 to 100 µM.

How did the Kd turn out when `O=C1CCC(N2C(=O)CC3(CN(C(=O)c4ccccc4)C3)C2=O)C(=O)N1` (stereo not shown) [Example 44-2, 2-Benzoyl-6-(2,6-dioxopiperidin-3-yl)-2,6-diazaspiro [3.4]octane-5,7-dione] was run?
Its Kd is no less than 100 µM.

With `CC(C)(C)OC(=O)c1ccc(N2CC3(CC(=O)N(C4CCC(=O)NC4=O)C3=O)C2)nc1` (stereo not shown) [Example 45, tert-Butyl 6-[6-(2,6-dioxopiperidin-3-yl)-5,7-dioxo-2,6-diazaspiro [3.4]octan-2-yl]pyridine-3-carboxylate] as the compound, how does the Kd read?
The Kd was 50 to 100 µM.

For `CC(C)(C)OC(=O)c1ccnc(N2CC3(CC(=O)N(C4CCC(=O)NC4=O)C3=O)C2)c1` (stereo not shown) [Example 46, tert-Butyl 2-[6-(2,6-dioxopiperidin-3-yl)-5,7-dioxo-2,6-diazaspiro[3.4]octan-2-yl]pyridine-4-carboxylate], which Kd is on record?
The Kd was 50 to 100 µM.

For `CC(C)(C)OC(=O)c1cccc(N2CC3(CC(=O)N(C4CCC(=O)NC4=O)C3=O)C2)n1` (stereo not shown) [Example 47, tert-Butyl 6-[6-(2,6-dioxopiperidin-3-yl)-5,7-dioxo-2,6-diazaspiro[3.4]octan-2-yl]pyridine-2-carboxylate], which Kd is on record?
Its Kd is 50 to 100 µM.

With `CC(C)(C)OC(=O)CN1CC2(CC(=O)N(C3CCC(=O)NC3=O)C2=O)C1` (stereo not shown) [Example 48, tert-Butyl 2-[6-(2,6-dioxopiperidin-3-yl)-5,7-dioxo-2,6-diazaspiro[3.4]octan-2-yl]acetate] as the compound, how does the Kd read?
Its Kd is no less than 100 µM.

Which Kd does the source give for `CC(C)(C)OC(=O)C(C)(C)N1CC2(CC(=O)N(C3CCC(=O)NC3=O)C2=O)C1` (stereo not shown) [Example 49, tert-Butyl 2-[6-(2,6-dioxopiperidin-3-yl)-5,7-dioxo-2,6-diazaspiro[3.4]octan-2-yl]-2-methylpropanoate] here?
The Kd was no less than 100 µM.

`CC(C)(C)OC(=O)NCCCCCN1CC2(CC(=O)N(C3CCC(=O)NC3=O)C2=O)C1` (stereo not shown) [Example 50, tert-Butyl N-[5-[6-(2,6-dioxopiperidin-3-yl)-5,7-dioxo-2,6-diazaspiro[3.4]octan-2-yl]pentyl]carbamate] was tested. Which Kd did it give?
The Kd was no less than 100 µM.

With `CC(C)(C)OC(=O)NCCCCCCCCN1CC2(CC(=O)N(C3CCC(=O)NC3=O)C2=O)C1` (stereo not shown) [Example 51, tert-Butyl N-[8-[6-(2,6-dioxopiperidin-3-yl)-5,7-dioxo-2,6-diazaspiro[3.4]octan-2-yl]octyl]carbamate] as the compound, how does the Kd read?
The Kd was no less than 100 µM.

For `CCOC(=O)c1ccc2nc(N3CC4(CC(=O)N(C5CCC(=O)NC5=O)C4=O)C3)sc2c1` (stereo not shown) [Example 52, Ethyl 2-[6-(2,6-dioxopiperidin-3-yl)-5,7-dioxo-2,6-diazaspiro[3.4]octan-2-yl]-1,3-benzothiazole-6-carboxylate], which Kd is on record?
Its Kd is less than 50 µM.

How did the Kd turn out when `COC(=O)c1cccc(CN2CC3(CC(=O)N(C4CCC(=O)NC4=O)C3=O)C2)c1` (stereo not shown) [Example 53, Methyl 3-[[6-(2,6-dioxopiperidin-3-yl)-5,7-dioxo-2,6-diazaspiro[3.4]octan-2-yl]methyl]benzoate] was run?
Its Kd is 50 to 100 µM.

How did the Kd turn out when `COC(=O)c1ccc(CN2CC3(CC(=O)N(C4CCC(=O)NC4=O)C3=O)C2)cc1` (stereo not shown) [Example 54, Methyl 4-[[6-(2,6-dioxopiperidin-3-yl)-5,7-dioxo-2,6-diazaspiro[3.4]octan-2-yl]methyl]benzoate] was run?
The Kd was 50 to 100 µM.
